The values that follow come from patent publication US8940685B2, “Method for preparing active peptides from corn germ proteins” (China National Research Institute of Food and Fermentation …, priority 2011, dated 2015).

A word on the IC50: it is the concentration needed to halve the response being measured.

Data set [1] deals with ACE (Homo sapiens, UniProt P12821). Conditions: read-out: in vitro antihypertensive activity IC50; cited from earlier work.
For data set [2], the system named is SHR. The settings on record: oral gavage 50 mg/kg, after two hours; cited from earlier work.
The subject of data set [3] is spontaneous hypertension rats. Put plainly: antihypertensive effect on spontaneous hypertension rat, 8 weeks of continuous gavage. It is filed as in vivo. The settings on record: for blood pressure: Captopril group 10 mg/kg.bw gavage, n = 8. The procedure:
The blank control group was gavaged with the same volume of distilled water, and the positive control group was gavaged with 10 mg/kg.bw captopril.

The mark [4] stands for this setting: after 8 weeks of continuous gavage, each group, P>0.05.

Chain of ACE (P12821 30-1306, species assumed): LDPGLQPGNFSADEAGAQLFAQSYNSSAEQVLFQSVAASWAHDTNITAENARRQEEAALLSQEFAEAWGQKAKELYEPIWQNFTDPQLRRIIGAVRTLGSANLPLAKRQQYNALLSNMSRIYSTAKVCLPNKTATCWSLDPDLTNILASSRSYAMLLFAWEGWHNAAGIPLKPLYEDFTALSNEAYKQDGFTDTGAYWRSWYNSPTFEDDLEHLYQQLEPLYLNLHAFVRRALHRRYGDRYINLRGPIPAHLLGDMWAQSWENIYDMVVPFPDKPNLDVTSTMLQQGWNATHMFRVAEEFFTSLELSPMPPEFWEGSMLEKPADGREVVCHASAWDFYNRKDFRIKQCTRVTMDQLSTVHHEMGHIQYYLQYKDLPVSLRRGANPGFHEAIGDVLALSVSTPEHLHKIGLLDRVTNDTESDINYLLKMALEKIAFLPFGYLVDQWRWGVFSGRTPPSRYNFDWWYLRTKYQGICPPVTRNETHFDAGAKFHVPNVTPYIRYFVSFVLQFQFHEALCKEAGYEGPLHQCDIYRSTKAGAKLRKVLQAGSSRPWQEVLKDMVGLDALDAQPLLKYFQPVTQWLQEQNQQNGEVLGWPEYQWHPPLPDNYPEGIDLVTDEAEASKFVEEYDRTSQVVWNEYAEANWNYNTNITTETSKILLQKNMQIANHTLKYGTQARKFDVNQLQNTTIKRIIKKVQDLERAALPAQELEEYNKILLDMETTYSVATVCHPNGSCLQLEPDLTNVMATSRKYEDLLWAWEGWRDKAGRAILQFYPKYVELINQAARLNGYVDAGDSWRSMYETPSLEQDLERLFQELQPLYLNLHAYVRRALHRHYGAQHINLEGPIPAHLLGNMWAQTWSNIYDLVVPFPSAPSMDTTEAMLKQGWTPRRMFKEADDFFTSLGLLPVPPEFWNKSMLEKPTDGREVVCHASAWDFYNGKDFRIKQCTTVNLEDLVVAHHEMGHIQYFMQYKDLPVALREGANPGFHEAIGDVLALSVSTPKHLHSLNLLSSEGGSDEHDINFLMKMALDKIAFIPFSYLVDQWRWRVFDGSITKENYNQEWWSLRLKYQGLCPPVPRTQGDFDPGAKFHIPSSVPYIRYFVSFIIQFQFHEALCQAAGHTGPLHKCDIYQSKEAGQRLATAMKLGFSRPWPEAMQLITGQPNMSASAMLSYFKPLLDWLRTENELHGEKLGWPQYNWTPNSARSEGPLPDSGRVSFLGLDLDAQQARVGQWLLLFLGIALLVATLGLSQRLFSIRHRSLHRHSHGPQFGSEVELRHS

With alanine-Tyrosine [AY], the IC50 in data set [1] is 14.2 µM. Further, the “drop of blood pressure” value in data set [2] is reported as 9.5 mmHg.
As for `C[C@H](CS)C(=O)N1CCC[C@H]1C(=O)O` [Captopril, captopril], the blood pressure came out at 193 ± 6 mmHg in data set [3] (0w); 184 ± 16 mmHg in data set [3] (1w); 177 ± 9 mmHg in data set [3] (2w); 174 ± 12 mmHg in data set [3] (3w); 170 ± 14 mmHg in data set [3] (4w); 168 ± 12 mmHg in data set [3] (5w). The blood pressure in data set [3] (6w) amounted to 164 ± 17 mmHg; in data set [3] (7w) it was 162 ± 15 mmHg; in data set [3] (8w), 161 ± 16 mmHg. In addition, the body weight result in data set [3] (setting [4]) is on record as “no significant change”. For the same compound, in data set [3] (setting [4]), the heart rate entry is given as “no significant change”. For the same compound, in data set [3] (setting [4]), the heart/body weight ratio entry is given as “no significant change”. For the same compound, in data set [3] (captopril group 10 mg/kg.bw, n=8, P<0.01), the “Serum aldosterone concentration vs control group” value is given as “significantly lower”.
